Values joined by “and” are separate entries in the source; they are usually repeats but may differ in a detail not shown here. Equal entries are not always repeated. “Also recorded” adds a separate entry of the source. Where two headings read alike, the source gives them in different places.
Tests used:
[1] = tested on: cultured primary hippocampal neurons; assay: Translation reporter assay: EGFP-αCaMKII 3′ UTR reporter mRNA transfected into neurons; assay type: cell-based, rat
[2] = tested on: cultured hippocampal neurons; assay: Metabolic pulse labeling (35S-methionine incorporation) in cultured hippocampal neurons; assay type: cell-based, rat; conditions: for Increase in translation levels: hippocampal neuronal cultures, 35S metabolic labeling
[3] = tested on: phospho-S6 (S235/S236); assay: Western analysis of S6 phosphorylation; assay type: cell-based, rat
Method: (§1) Western analysis. Homogenates were prepared in cold RIPA buffer containing protease inhibitors and phosphatase inhibitors. Hippocampal neurons were homogenized 8 minutes after stimulation. Hippocampal slices were frozen on dry ice 10 minutes after tetanization, and the CA1 and CA3 fields were microdissected and homogenized. Western analysis was performed with rabbit polyclonal antisera against dually-phosphorylated ERK1/2, phospho-S6 (S235/S236), phospho-eIF4E (S209), and phospho-4E-BP (S65) (Cell Signaling). […] Therefore, since 4E-BP2 is the most abundantly expressed 4E-BP in the brain, it is likely that the results reflected 4E-BP2 levels and phosphorylation state. Blots were stripped and reprobed with antisera directed against total ERK1/2, S6, eIF4E, and 4E-BP (Cell Signaling). Results were quantified with ImageJ (NIH), calculated as the ratio of phosphorylated species to […], and then normalized to the untreated control condition Staining of total protein with Ponceau-S confirmed equal loading.

[4] = tested on: phospho-eIF4E (S209); assay: Western analysis of eIF4E phosphorylation; assay type: cell-based, rat
Method: as §1

[5] = tested on: hippocampal brain slices; assay: Metabolic labeling of newly synthesized proteins in hippocampal brain slices; assay type: cell-based
[6] = tested on: phospho-4E-BP (S65); assay: Western analysis of 4E-BP phosphorylation; assay type: cell-based, rat
Method: as §1

[7] = tested on: dually-phosphorylated ERK1/2
[8] = tested on: synaptoneurosomes
[9] = tested on: hippocampal slices; assay type: cell-based, mice
[10] = hippocampal cultures, Western Blot
[11] = cultured hippocampal neurons (FIG. 10), agonist 10 uM or 50 uM
[12] = hippocampal brain slices (FIG. 9), agonist 10 uM or 50 uM

In the case of NC(CCCP(=O)(O)O)C(=O)O (centres unmarked) [AP5], the “Translation of EGFP-αCaMKII-A20 reporter mRNA” value ([1]; spontaneous neuronal activity, pretreatment with AP5 (100 μM) and DNQX (10 μM) together) is reported as “significantly inhibited”.

With OCC(O)c1ccc(O)c(O)c1 (centres unmarked) [DHPG, 3,4-Dihydroxyphenylglycol] the “Increase in translation levels” value [2] was 50%+/−20%, the “Increase in phosphorylation of S6” value [3, 10] was 52%+/−18% and the “Increase in phosphorylation of eIF4E” value [4, 10] was 33%+/−3%.

For O=[N+]([O-])c1cc2nc(O)c(O)nc2cc1[N+](=O)[O-] [DNQX], the “Translation of EGFP-αCaMKII-A20 reporter mRNA” value [1] was “significantly inhibited”.

For Oc1cc2c(cc1O)C(c1ccccc1)CNCC2 (centres unmarked) [SKF38393], the “Translation of endogenous neuronal mRNAs (metabolic labeling of newly synthesized proteins)” value (“Translation of endogenous neuronal mRNAs” for short) [2, 11] was “stimulate translation” and the “Translation of endogenous neuronal mRNAs” value [5, 12] was “stimulate translation”.

For N#CC(=C(/N)Sc1ccccc1N)/C(C#N)=C(\N)Sc1ccccc1N [U0126], the “Effect of concurrent treatment on stimulated EGFP-αCaMKII-A20 mRNA translation” value [1] was “significantly attenuated the effects of stimulation”, the “Sensitivity of activity-induced reporter mRNA translation to inhibition” value [1] was “persisted after mutation of the CPEs” and the “Translation of EGFP-αCaMKII-A20 reporter mRNA, combined pretreatment” value [1] was “no additional inhibition”. The “Bulk translation of endogenous transcripts (35S-methionine incorporation)” value [2] was “strongly inhibited”, the “Effect of pretreatment on agonist-induced increases in neuronal protein synthesis” value [2] was “blocked” and the “Effect on DHPG-induced increase in translation rates” value [2] was “blocked”. For the same molecule, the “Effect on dopamine-induced increase in translation” value [2] was “blocked”, the “Effect on spaced depolarization-induced increase in translation” value [2] was “blocked” and the “Effect on DHPG-induced increase in phosphorylation of S6” value [3] was “blocked”. For the same molecule, the “Phosphorylation of S6” value [3] was “significantly inhibited; also recorded: significantly reduced”, the “Effect on DHPG-induced increase in phosphorylation of eIF4E” value [4] was “blocked” and the “Phosphorylation of eIF4E” value [4] was “significantly inhibited; also recorded: significantly reduced”. For the same molecule, the “Phosphorylation of 4E-BP” value [6] was “significantly inhibited”, the “Effect of pretreatment on agonist-induced increases in neuronal protein synthesis” value [5] was “blocked” and the “ERK phosphorylation (phospho-ERK levels)” value [7] was “entirely abolished”. The “Phosphorylation of ERK” value [7] was “significantly reduced” and the “Translation of endogenous synaptodendritic mRNAs” value [8] was “significantly reduced”.

With COc1ccc(C[C@H]2NC[C@H](O)[C@H]2OC(C)=O)cc1 [anisomycin] the “Additional decrement in L-LTP” value [9] was “did not produce any additional decrement in L-LTP”, the “Kinetic pattern of L-LTP inhibition” value [9] was “progressive inhibition of L-LTP” and the “L-LTP magnitude at 200 minutes” value [9] was 108±5% and 113±5%.

In the case of C[N+](C)(C)CCOC(N)=O [carbachol], the “Translation of endogenous neuronal mRNAs” value [2, 11] is reported as “stimulate translation” and the “Translation of endogenous neuronal mRNAs” value [5, 12] is reported as “stimulate translation”.

In the case of NCCc1ccc(O)c(O)c1 [dopamine], the “Increase in translation levels” value [2] is reported as 77%+/−26%.

In the case of CC(C)NCC(O)c1ccc(O)c(O)c1 (centres unmarked) [isoproteronol], the “Translation of endogenous neuronal mRNAs” value [2, 11] is reported as “stimulate translation” and the “Translation of endogenous neuronal mRNAs” value [5, 12] is reported as “stimulate translation”.

For CCCN1CCC[C@@H]2Cc3n[nH]cc3C[C@H]21 [quinpirole], the “Translation of endogenous neuronal mRNAs” value [2] was “stimulate translation” and the “Translation of endogenous neuronal mRNAs” value [5] was “stimulate translation”.

With Sp-cAMPS the “Effect on translation (in words)” value [2] was “increased translation”.

For actinomycin-D, the “Additional decrement in L-LTP” value [9] was “did not produce any additional decrement in L-LTP”, the “Kinetic pattern of L-LTP inhibition” value [9] was “distinct, delayed pattern of inhibition” and the “L-LTP magnitude at 60 min. post-tetanization” value [9] was 157±4% and 157±3%. The “L-LTP magnitude at 200 minutes” value [9] was 107±4% and 122±5% and the “Time after onset of tetanization during which L-LTP magnitude remained indistinguishable from untreated slices” value [9] was “approximately 75 minutes”.

B1: BDNF: brain derived neurotrophic factor; activates trkB (protein, UniProt P23560 19-247, looked up)
Neurotrophic factor BDNF …: APMKEANIRGQGGLAYPGVRTHGTLESVNGPKAGSRGLTSLADTFEHVIEELLDEDQKVRPNEENNKDADLYTSRVMLSSQVPLEPPLLFLLEEYKNYLDAANMSMRVRRHSDPARRGELSVCDSISEWVTAADKKTAVDMSGGTVTVLEKVPVSKGQLKQYFYETKCNPMGYTKEGCRGIDKRHWNSQCRTTQSYVRALTMDSKKRIGWRFIRIDTSCVCTLTIKRGR
B1 was tested, and the “Stimulation of EGFP-αCaMKII-A20 mRNA translation” value ([1]; 100 ng/mL BDNF for 4 hours, 40 μM bicuculline for 8 min., after U0126 preincubation and wash) was “significant increases”.

Reference: US20100150839A1, “Compositions and Methods for Modulating Cognitive Function” (Massachusetts Institute of Technology, priority 2005, published 2010)
